In patent US7560464B2, “Polycyclic pyrimidines as potassium ion channel modulators” (Icagen, Inc., priority 2004, dated 2009):

Molecular target: hSK2 (Homo sapiens, UniProt Q9H2S1)
Experiment: Assay for compound activity towards hSK channels (86Rb+ efflux)
Assay type: cell-based
Conditions: 86Rb+ efflux stimulated with calcium ionophore; drug 0.01 to 30 μM in EBSS; read-out: hSK2 Inhibitory Activity
Procedure: 20.1 Assay for Compound Activity Towards hSK Channels
Cells expressing small conductance, calcium activated potassium channels, such as SK-like channels were loaded with ^86Rb^+ by culture in media containing ^86RbCl. Following loading, the culture media was removed and the cells were washed in EBSS to remove residual traces of ^86Rb^+. Cells were preincubated with the drug (0.01 to 30 μM in EBSS) and then ^86Rb^+ efflux was stimulated by exposing cells to EBSS solution supplemented with a calcium ionophore, such as ionomycin, in the continued presence of the drug. After a suitable efflux period, the EBSS/ionophore solution was removed from the cells and the ^86Rb^+ content was determined by Cherenkov counting (Wallac Trilux). Cells were then lysed with a SDS solution and the ^86Rb^+ content of the lysate was determined. Percent ^86Rb^+ efflux was calculated according to the following equation: (^86Rb^+ content in EBSS/(^86Rb^+ content in EBSS+^86Rb^+ content of the lysate))×100 20.2 Results

| Compound | IC50 |
| --- | --- |
| Clc1ccc(Nc2nccc(-c3ccccn3)n2)nc1 [(5-Chloro-pyridin-2-yl)-(4-pyridin-2-yl-pyrimidin-2-yl)-amine] | 100 to 1000 nM |
| COc1cnc(-c2ccccn2)nc1Nc1ccc(F)cn1 [(5-Fluoro-pyridin-2-yl)-(5-methoxy-2-pyridin-2-yl-pyrimidin-4-yl)-amine] | 100 to 1000 nM |
| c1ccc(Nc2nc(-c3ccccn3)nc3ccccc23)nc1 [Pyridin-2-yl-(2-pyridin-2-yl-quinazolin-4-yl)-amine] | 100 to 1000 nM |
| COc1cnc(-c2ccccn2)nc1Nc1ccc([N+](=O)[O-])cn1 [(5-Methoxy-2-pyridin-2-yl-pyrimidin-4-yl)-(5-nitro-pyridin-2-yl)-amine] | 5000 to 30000 nM |
| Cc1cc(Nc2ccccn2)nc(-c2ccccn2)n1 [(6-methyl-2-pyridin-2-yl-pyrimidin-4-yl)-pyridin-2-yl-amine] | 5000 to 30000 nM |
| COc1cnc(-c2ccccn2)nc1Nc1ccc(-c2cccc(F)c2)cn1 [[5-(3-Fluoro-phenyl)-pyridin-2-yl]-(5-methoxy-2-pyridin-2-yl-pyrimidin-4-yl)-amine] | 100 to 1000 nM |
| Cc1ccnc(Nc2nccc(-c3ccccn3)n2)c1 [(4-Methyl-pyridin-2-yl)-(4-pyridin-2-yl-pyrimidin-2-yl)-amine] | < 100 nM |
| Cc1cccc(-c2ccnc(Nc3ccccn3)n2)n1 [[4-(6-methyl-pyridin-2-yl)-pyrimidin-2-yl]-pyridin-2-yl-amine] | 1000 to 5000 nM |
| COc1ccc(Nc2nc(-c3ccccn3)ncc2OC)nc1 [(5-Methoxy-pyridin-2-yl)-(5-methoxy-2-pyridin-2-yl-pyrimidin-4-yl)-amine] | < 100 nM |
| COc1cnc(-c2ccccn2)nc1Nc1ccc(N(C)C)cn1 [N^2-(5-Methoxy-2-pyridin-2-yl-pyrimidin-4-yl)-N5,N5-dimethyl-pyridine-2,5-diamine] | 100 to 1000 nM |
| COc1cnc(-c2ccccn2)nc1Nc1ccc(N2CCN(C)CC2)cn1 [(5-Methoxy-2-pyridin-2-yl-pyrimidin-4-yl)-[5-(4-methyl-piperazin-1-yl)-pyridin-2-yl]-amine] | 100 to 1000 nM |

Second part, the compound after the results:

| IC50 | Compound |
| --- | --- |
| 5000 to 30000 nM | COc1cnc(-c2ccccn2)nc1NNc1ccccn1 [N-(5-Methoxy-2-pyridin-2-yl-pyrimidin-4-yl)-N′-pyridin-2-yl-hydrazine] |
| 5000 to 30000 nM | c1ccc(Nc2nc(-c3ccccn3)c3ccccc3n2)nc1 [Pyridin-2-yl-(4-pyridin-2-yl-quinazolin-2-yl)-amine] |
| 1000 to 5000 nM | Clc1ccc(Nc2ccnc(-c3ccccn3)n2)nc1 [(5-Chloro-pyridin-2-yl)-(2-pyridin-2-yl-pyrimidin-4-yl)-amine] |
| < 100 nM | COc1cnc(-c2ccccn2)nc1Nc1ccc(N2CCCC2)cn1 [(5-Methoxy-2-pyridin-2-yl-pyrimidin-4-yl)-(5-pyrrolidin-1-yl-pyridin-2-yl)-amine] |
| < 100 nM | COc1cnc(-c2ccccn2)nc1Nc1ccc(N2CCC(C)CC2)cn1 [(5-Methoxy-2-pyridin-2-yl-pyrimidin-4-yl)-(4-methyl-3,4,5,6-tetrahydro-2H-[1,3′]bipyridinyl-6′-yl)-amine] |
| < 100 nM | COc1cnc(-c2ccccn2)nc1Nc1cc(C)ccn1 [(5-Methoxy-2-pyridin-2-yl-pyrimidin-4-yl)-(4-methyl-pyridin-2-yl)-amine] |
| < 100 nM | COc1cnc(-c2ccccn2)nc1Nc1ccc(N2CCCC2=O)cn1 [1-[6-(5-Methoxy-2-pyridin-2-yl-pyrimidin-4-ylamino)-pyridin-3-yl]-pyrrolidin-2-one] |
| 5000 to 30000 nM | COc1cnc(-c2ccccn2)nc1Nc1ccc(C(F)(F)F)cn1 [(5-Methoxy-2-pyridin-2-yl-pyrimidin-4-yl)-(5-trifluoromethyl-pyridin-2-yl)-amine] |
| 5000 to 30000 nM | COc1cnc(-c2ccccn2)nc1Nc1ccc(Br)cn1 [(5-Bromo-pyridin-2-yl)-(5-methoxy-2-pyridin-2-yl-pyrimidin-4-yl)-amine] |
| < 100 nM | COc1cnc(-c2ccccn2)nc1Nc1ccc(N)cn1 [N^2-(5-Methoxy-2-pyridin-2-yl-pyrimidin-4-yl)-pyridine-2,5-diamine] |
| 100 to 1000 nM | COc1cnc(-c2ccccn2)nc1Nc1ccc(-c2ccc(C)o2)cn1 [(5-Methoxy-2-pyridin-2-yl-pyrimidin-4-yl)-[5-(5-methyl-furan-2-yl)-pyridin-2-yl]-amine] |
| 100 to 1000 nM | COc1cnc(-c2ccccn2)nc1Nc1ccc(Cl)cn1 [(5-Chloro-pyridin-2-yl)-(5-methoxy-2-pyridin-2-yl-pyrimidin-4-yl)-amine] |
| 5000 to 30000 nM | c1ccc(Nc2cc(-c3ccccn3)nc(-c3ccccn3)n2)nc1 [(2,6-Di-pyridin-2-yl-pyrimidin-4-yl)-pyridin-2-yl-amine] |
| 5000 to 30000 nM | FC(F)(F)c1ccc(Nc2cc(-c3ccccn3)nc(-c3ccccn3)n2)nc1 [(2,6-Di-pyridin-2-yl-pyrimidin-4-yl)-(5-trifluoromethyl-pyridin-2-yl)-amine] |
| 100 to 1000 nM | COc1cnc(-c2ccccn2)nc1Nc1ccc(-c2ccccc2)cn1 [(5-Methoxy-2-pyridin-2-yl-pyrimidin-4-yl)-(5-phenyl-pyridin-2-yl)-amine] |
| 5000 to 30000 nM | Cc1nc(-c2ccccn2)nc(Nc2ccc(C(F)(F)F)cn2)c1Cl [(5-Chloro-6-methyl-2-pyridin-2-yl-pyrimidin-4-yl)-(5-trifluoromethyl-pyridin-2-yl)-amine] |
| 100 to 1000 nM | c1ccc(-c2ccc(Nc3nccc(-c4ccccn4)n3)nc2)cc1 [(5-Phenyl-pyridin-2-yl)-(4-pyridin-2-yl-pyrimidin-2-yl)-amine] |
| 100 to 1000 nM | COc1cnc(-c2ccccn2)nc1Nc1ccccn1 [(5-Methoxy-2-pyridin-2-yl-pyrimidin-4-yl)-pyridin-2-yl-amine] |
| < 100 nM | c1ccc(Nc2nccc(-c3ccccn3)n2)nc1 [Pyridin-2-yl-(4-pyridin-2-yl-pyrimidin-2-yl)-amine] |
| 1000 to 5000 nM | Clc1cc(-c2ccccn2)nc(-c2ccccn2)n1 [4-Chloro-2,6-di-pyridin-2-yl-pyrimidine] |
| 5000 to 30000 nM | CN(c1ccccn1)c1nccc(-c2ccccn2)n1 [Methyl-pyridin-2-yl-(4-pyridin-2-yl-pyrimidin-2-yl)-amine] |
| < 100 nM | COc1cnc(-c2ccccn2)nc1Nc1ccc(-c2ccsc2)cn1 [(5-Methoxy-2-pyridin-2-yl-pyrimidin-4-yl)-(5-thiophen-3-yl-pyridin-2-yl)-amine] |
| 1000 to 5000 nM | Cc1cccc(-c2nccc(Nc3ccccn3)n2)n1 [[2-(6-methyl-pyridin-2-yl)-pyrimidin-4-yl]-pyridin-2-yl-amine] |
| 5000 to 30000 nM | FC(F)(F)c1ccc(Nc2nccc(-c3ccccn3)n2)nc1 [(4-Pyridin-2-yl-pyrimidin-2-yl)-(5-trifluoromethyl-pyridin-2-yl)-amine] |
| < 100 nM | COc1cnc(-c2ccccn2)nc1Nc1ccc(-c2cccs2)cn1 [(5-Methoxy-2-pyridin-2-yl-pyrimidin-4-yl)-(5-thiophen-2-yl-pyridin-2-yl)-amine] |

Molecular target: T1, recombinant human SK4 (hIK1 or hKCa4) channels (Homo sapiens, UniProt O15554+P0DP23)
T1 construct: host or cells: HEK 293
Experiment: not given
Conditions: applied to the inside of SK4 channel-expressing membrane patches; cited from earlier work

| Compound | activation of SK4 channels |
| --- | --- |
| zinc | did not activate |
| iron | did not activate |
| Barium | activated SK4 channels in a concentration-dependent manner |
| calcium | activated SK4 channels in a concentration-dependent manner |
| cadmium | activated SK4 channels in a concentration-dependent manner |
| strontium | activated SK4 channels in a concentration-dependent manner |
| lead | activated SK4 channels in a concentration-dependent manner |
| cobalt | did not activate |
| magnesium | did not activate |

Molecular target: SK2 subtype channels (Rattus norvegicus, UniProt P70604)
Experiment: not given
Conditions: patch clamp; cited from earlier work

| Compound | block of SK2 channel currents |
| --- | --- |
| CN(C)CCC=C1c2ccccc2CCc2ccccc21 [amitriptyline] | block SK2 channel currents with micromolar affinity |
| NC(=O)N1c2ccccc2C=Cc2ccccc21 [carbamazepine] | block SK2 channel currents with micromolar affinity |
| Nc1c2c(nc3ccccc13)CCCC2 [tacrine] | block SK2 channel currents with micromolar affinity |
